Assay results: patent US4218439A, “Peptide which inhibits gonadal function” (The Salk Institute for Biological Studies, priority 1978, dated 1980)

Tests used:
[1] = tested on: release of luteinizing hormone and other gonadotropins by the pituitary gland; settings: compared with Gly6 peptide; cited from earlier work
female rats = settings: large and frequent dosages; cited from earlier work
[2] = tested on: release of gonadotropins by the pituitary gland; test: potency of the peptide compared with LRF; settings: times more potent than LRF
From the text: The peptide can be used as a contraceptive for male mammals. The peptide can be administered by any suitable and convenient method, such as orally, by injection or subcutaneously. The peptide can be combined with suitable pharmaceutically acceptable carriers or diluents, such as vegetable oil, sugars, polysaccharides and gums.

male rats [3] = test: treatment of male rats with the peptide once a day: organ weights, plasma hormones, histology, fertility; assay type: in vivo, rat
From the text: It has been determined that the treatment of male rats with 10 micrograms of the peptide once a day for 7 days results in a decrease in testis and seminal vesicle weight, spermatogenesis and plasma androgen levels. However, immunoreactive gonadotropin levels in the treated male animals were elevated relative to control animals.

male mammals = test: effective dosage level and recovery after cessation of 7-day treatment; assay type: in vivo
From the text: The peptide is used at a level effective to prevent reproduction by male mammals. It has been determined that the peptide of the invention is effective at levels as low as 0.5 microgram per kilogram of body weight per day for 7 days to reduce testes and seminal vesicle weights. […] Prostate weights recover in 2 weeks and seminal vesicle weights in 4 weeks. It is preferred to use dosage levels in the range of from about 0.5 to about 50 micrograms per kilogram of body weight per day. Higher levels can be used but no significant benefit is attained through use of higher levels.

male rats [4] = test: treatment of male rats with the peptide once a day: organ weights, plasma hormones, histology, fertility; assay type: in vivo, rat; settings: 10 μG peptide for 15 days (Table I)
[5] = following cessation of the injections
[6] = male rats, 10 micrograms once a day for 7 days
[7] = following cessation of treatment for 7 days

Compound: p--Glu--Trp--Ser--Tyr--D--Ala--Leu--Arg--Pro--Gly--NH2
- potency as an inhibitor for the release of gonadotropins relative to the same peptide with Gly in the 6-position [1]: 3 times

Compound: p--Glu--His--Trp--Ser--Tyr--Gly--Leu--Arg--Pro--Gly--NH2 (EHWSYGLRPG; pyroglutamyl N-terminus, C-terminal amide; printed: Glu--His--Trp--Ser--Tyr--Gly--Leu--Arg--Pro--Gly--) [LRF, hypothalamic hormone which acts as a releasing factor for LH; decapeptide]
- effect on gonadal function (female rats): inhibit gonadal function

Compound: CCNC(=O)[C@@H]1CCCN1C(=O)[C@H](CCCNC(=N)N)NC(=O)[C@H](CC(C)C)NC(=O)[C@@H](Cc1c[nH]c2ccccc12)NC(=O)[C@H](Cc1ccc(O)cc1)NC(=O)[C@H](CO)NC(=O)[C@H](Cc1c[nH]c2ccccc12)NC(=O)[C@H](Cc1c[nH]cn1)NC(=O)[C@@H]1CCC(=O)N1 [peptide, p--Glu--His--Trp--Ser--Tyr--D--Trp--Leu--Arg--Pro--NH--CH2 --CH3]
- potency relative to LRF [2]: about 150 times
- ability to cause fertilization (male rats [3]; [5]): incapable of causing fertilization
- ability to effect coitus (male rats [3]; [5]): capable of effecting coitus
- histological examination of the testes (male rats [3]; following the 7-day treatment, up to several weeks following cessation of daily injections): tubular damage, arrested spermatogenesis and degenerated Sertoli cells
- immunoreactive gonadotropin levels relative to control animals (male rats [3]; [6]): elevated
- testis and seminal vesicle weight, spermatogenesis and plasma androgen levels (male rats [3]; [6]): decrease
- time for prostate weights to recover (male mammals; [7]): 2 weeks
- time for seminal vesicle weights to recover (male mammals; [7]): 4 weeks
- time until testosterone levels comparable to those of control animals (male mammals; [7]): one
- level effective to reduce testes and seminal vesicle weights (male mammals; for 7 days): ≤ 0.5 microgram per kilogram of body weight per day
- Plasma DHT (male rats [4]): 151 ng/mL
- Plasma FSH (male rats [4]): 1582 ng/mL
- Plasma LH (male rats [4]): 561 ng/mL
- Plasma Test. (male rats [4]): 229 ng/mL
- Wt. Sem. V. (male rats [4]): 0.18 Grams
- Wt. Testis (male rats [4]): 1.33 Grams
